Common to all, as to type: cell-based
One test has as its system Zr-75-1. Put plainly: SRB assay, breast cancer cell line Zr-75-1. The following applies: Homo sapiens, read-out: In vitro anticancer activity GI50, Breast Zr-75-1. On the procedure:
(§1) Single cell suspension of the tumour cells grown in tissue culture were made, cells counted and cell count adjusted to 1×10^5 to 5×10^5 cells/ml. Ninety six (96) well plates were seeded with this cell suspension, each well receiving 100 μl of it. The plate was then be incubated at 37° C. temperature in CO2 incubator for 24 hours. Drugs were added at concentrations after 24-hour incubation followed by further incubation for 48 hours. Experiment was terminated by gently layering the cells in the wells with 30% TCA and plates were kept in refrigerator for 1 hour following which they were washed thoroughly with tap water, dried attained with 0.4% SRB in 1% acetic aid and finally, the bound SRB eluted with 10 mM tris. Absorbance was read at 540 nm, in the microtitre-plate reader. Optical density of drug-treated cells was compared with that of control cells and cell inhibition was calculated as percent values. Each compound was tested at 10, 20, 40 and 80 μg/ml in triplicate on human malignant cell lines.

The next test concerns MCF7. In words: SRB assay, breast cancer cell line MCF7. The note with it: Homo sapiens, read-out: In vitro anticancer activity GI50, Breast MCF7. How it is done: as §1
A further test deals with KB. In words: SRB assay, oral cancer cell line KB. The note with it: Homo sapiens, read-out: In vitro anticancer activity GI50, Oral KB. On the procedure: as §1
The next test relates to Gurav. In words: SRB assay, oral cancer cell line Gurav. The following applies: Homo sapiens, read-out: In vitro anticancer activity GI50, Oral Gurav. On the procedure:
as §1

The next test deals with DWD. In words: SRB assay, oral cancer cell line DWD. The note with it: Homo sapiens, read-out: In vitro anticancer activity GI50, Oral DWD. On the procedure: as §1
For the next test, the system named is Colo205. Put plainly: SRB assay, colon cancer cell line Colo205. The note with it: Homo sapiens, read-out: In vitro anticancer activity GI50, Colon Colo205. On the procedure:
as §1

A further test deals with Hop62. In words: SRB assay, lung cancer cell line Hop62. The following applies: Homo sapiens, read-out: In vitro anticancer activity GI50, Lung Hop62. On the procedure: as §1
In a further test the test system is A-2780. Put plainly: SRB assay, ovarian cancer cell line A-2780. The following applies: Homo sapiens, read-out: In vitro anticancer activity GI50, Ovarian A-2780. How it is done:
as §1

The next test has as its system A-549. Put plainly: SRB assay, lung cancer cell line A-549. The following applies: Homo sapiens, A549; SRB assay, 48 hours drug exposure; read-out: In vitro anticancer activity GI50, Lung A-549. How it is done:
as §1

Where [1] appears, read: SRB assay, 48 hours drug exposure.

Where two headings read alike, the source gives them in different places.

On to `COc1cc(/C(=C\c2ccc(O)c([N+](=O)[O-])c2)C(=O)N[C@@H]2c3cc4c(cc3[C@@H](c3cc(OC)c(OC)c(OC)c3)[C@H]3C(=O)OC[C@@H]32)OCO4)cc(OC)c1OC` [Compound 3g, 4β-(E)-3-(4-hydroxy-3-nitrophenyl)-2-(3,4,5-trimethoxyphenyl)acrylamidopodophyllotoxin], for which the concentration for 50% growth inhibition (GI50) is 180 nM in the test on Zr-75-1 (ZR-75-1, 48 h); 2700 nM in the test on MCF7 (MCF7, 48 h); 2200 nM with KB (48 h); 190 nM with Gurav (48 h); under 100 nM in the test with DWD (48 h); 2000 nM with Colo205 (COLO 205, 48 h). Moreover, the concentration for 50% growth inhibition (GI50) came to 190 nM with Hop62 (HOP-62, 48 h) and 2200 nM in the test with A-2780 (A2780, 48 h).
As for `COc1cccc2c1C(=O)c1c(O)c3c(c(O)c1C2=O)C[C@@](O)(C(=O)CO)C[C@@H]3O[C@H]1C[C@H](N)[C@H](O)[C@H](C)O1` [ADR, adriamycin, reference compound], the 50% growth inhibitory concentration (GI50) in the test with Zr-75-1 (ZR-75-1, SRB assay, 48 hours drug exposure) was 110 nM; in the test on MCF7 (MCF7, SRB assay, 48 hours drug exposure) it was 130 nM; in the test on KB (setting [1]) it was 130 nM; in the test with Gurav (setting [1]) it was under 100 nM; in the test with DWD (setting [1]) it was 100 nM; in the test on Colo205 (COLO 205, SRB assay, 48 hours drug exposure) it was under 100 nM. The GI50 was under 100 nM in the test with A-549; 150 nM in the test with Hop62 (HOP-62, SRB assay, 48 hours drug exposure); under 100 nM in the test on A-2780 (A2780, SRB assay, 48 hours drug exposure).

These data come from US8673969B2, “Substituted 4-β-acrylamidopodophyllotoxin congeners as antitumour antibiotics and the process for preparation thereof” (Council of Scientific & Industrial Research, priority 2010, dated 2014).
